SMILES strings stand for the structures.

The IC50 is the concentration that gives 50% inhibition.

For test [1], the target named is human recombinant FGFR4 catalytic structural domain protein (Homo sapiens (Human), UniProt P22455). The test can be described thus: FGFR4 activity inhibition test (HTRF kinase assay). The test is classed as biochemical. Conditions: 90 μM ATP. As to the method: FGFR4 Activity Inhibition Test
The influence of the compound according to the present invention on the activity of fibroblast growth factor receptor 4 (FGFR4) was evaluated by an in vitro kinase assay experiment.
(§1) The experimental method is summarized as follows:
The in vitro activity of FGFR4 was determined by assaying the phosphorylation level of the substrate in the kinase reaction, by means of an HTRF kinase assay kit.
(§2) If the IC50 value of the compound was very low, the initial concentration of the compound could be reduced.
After 60 min, the enzyme reaction was terminated by EDTA in the assay solution, and the phosphorylated products were identified by both the Eu^3+ labeled cage-shaped antibody (donor) and the streptavidin labeled XL665 antibody (receptor) at the same time. […] The inhibition percentage of the compound against FGFR4 activity could be calculated with the following formula: Inhibition percentage=100−100*(signalcompound−signalnegative control)/(signalpositive control−signalnegative control)
(§3) The IC50 value of the compound was calculated by the following formula, from 10 concentration points, with XLfit (ID Business Solutions Ltd., UK): Y=Bottom+(Top−Bottom)/(1+10^((Log IC50−X)*slope factor)) Where, Y is the inhibition percentage, Bottom is the bottom plateau of the curve (the bottom plateau of the S-type curve), Top is the top plateau of the curve (the top plateau of the S-type curve), and X is the log value of the compound concentration to be measured.
Background: In TR-FRET formats the signal depends on donor and acceptor labels being close together.

In test [2] the target is human recombinant FGFR1 catalytic structural domain protein (Homo sapiens (Human), UniProt P11362). The experiment in a line: FGFR1 activity inhibition test (HTRF kinase assay). The test is classed as biochemical. Conditions: 40 μM ATP. As to the method: FGFR1 Activity Inhibition Test
The influence of the compound according to the present invention on the activity of fibroblast growth factor receptor 1 (FGFR1) was evaluated by an in vitro kinase assay experiment.
as §1
The in vitro activity of FGFR1 was determined by assaying the phosphorylation level of the substrate in the kinase reaction, by means of an HTRF kinase assay kit.
as §2
After 60 min, the enzyme reaction was terminated by EDTA in the assay solution, and the phosphorylated products were identified by both the Eu^3+ labeled cage-shaped antibody (donor) and the streptavidin labeled XL665 antibody (receptor) at the same time. […] The inhibition percentage of the compound against FGFR1 activity could be calculated with the following formula: Inhibition percentage=100−100*(signalcompound−signalnegative control)/(signalpositive control−signalnegative control)
(§4) The IC50 value of the compound was calculated by the following formula, from 10 concentration points, with XLfit (ID Business Solutions Ltd., UK): Y=Bottom+(Top−Bottom)/(1+10^((Log IC50−X)*slope factor))
(§5) Where, Y is the inhibition percentage, Bottom is the bottom plateau of the curve (the bottom plateau of the S-type curve), Top is the top plateau of the curve (the top plateau of the S-type curve), and X is the log value of the compound concentration to be measured.

For test [3], the target named is human recombinant FGFR2 catalytic structural domain protein (Homo sapiens (Human), UniProt P21802). The experiment in a line: FGFR2 activity inhibition test (HTRF kinase assay). The test is classed as biochemical. Conditions: 50 μM ATP. On the procedure: FGFR2 Activity Inhibition Test
The influence of the compound according to the present invention on the activity of fibroblast growth factor receptor 2 (FGFR2) was evaluated by an in vitro kinase assay experiment.
as §1
The in vitro activity of FGFR2 was determined by assaying the phosphorylation level of the substrate in the kinase reaction, by means of an HTRF kinase assay kit. The reaction buffer comprised the following components: 5-fold diluted Enzymatic buffer/kinase 5× (Cisbio, Catalog number 62EZBFDD) (main ingredient: 50 mM HEPES, pH 7.0), 5 mM MgCl2, 1 mM DTT; the human recombinant FGFR2 catalytic structural domain protein (amino acids 400-821) was commercially available from Beijing Sino Biological Inc., diluted with the reaction buffer to a 0.045 ng/μL kinase solution; the substrate reaction solution comprised a biotin labeled tyrosine kinase substrate diluted with the reaction buffer to 800 nM (Cisbio, catalog number 62TK0PEC), and 50 μM ATP, and the assay solution comprised an Eu^3+ labeled cage-shaped antibody (Cisbio, Catalog number 61T66KLB) diluted with the assay buffer (Cisbio, Catalog number 62SDBRDF) to 0.125 ng/μL, and 50 nM streptavidin labeled XL665 (Cisbio, Catalog number 610SAXLB).
(§6) The compound was dissolved and diluted in 100% DMSO to 100 μM, then 4-fold-series diluted with DMSO to a minimum concentration of 0.0061 μM, and each concentration point was then 40-fold diluted with the reaction buffer. If the IC50 value of the compound was very low, the initial concentration of the compound could be reduced.
(§7) 4 μL of a compound solution and 2 μL of an FGFR2 kinase solution were added into a 384 well assay plate (Thermo, Catalog number 264706), mixed uniformly and then incubated for 15 min at room temperature; subsequently, 4 μL of the substrate reaction solution was added therein, and the reaction mixture was incubated for 60 min at room temperature; and then 10 μL of an assay solution of an equal volume to the reaction was added therein and mixed uniformly, followed by placement at room temperature. After 60 min, the enzyme reaction was terminated by EDTA in the assay solution, and the phosphorylated products were identified by both the Eu^3+ labeled cage-shaped antibody (donor) and the streptavidin labeled XL665 antibody (receptor) at the same time. After the excitation with laser, the donors and receptors that were close to each other experienced energy resonance transfer, and the energy transferred from the donor (620 nm) to the receptor (665 nm) could be detected with Envision. The ratio of 665/620 is in positive correlation to the phosphorylation degree of the substrate, thereby to detect the FGFR2 kinase activity. […] The inhibition percentage of the compound against FGFR2 activity could be calculated with the following formula: Inhibition percentage=100−100*(signalcompound−signalnegative control)/(signalpositive control−signalnegative control)
as §4, §5

Test [4] has as its target human recombinant FGFR3 catalytic structural domain protein (Homo sapiens (Human), UniProt P22607). The test can be described thus: FGFR3 activity inhibition test (HTRF kinase assay). The test is classed as biochemical. The conditions noted are these: 90 μM ATP. On the procedure: FGFR3 Activity Inhibition Test
The influence of the compound according to the present invention on the activity of fibroblast growth factor receptor 3 (FGFR3) was evaluated by an in vitro kinase assay experiment.
as §1
The in vitro activity of FGFR3 was determined by assaying the phosphorylation level of the substrate in the kinase reaction, by means of an HTRF kinase assay kit. The reaction buffer comprised the following components: 5-fold diluted Enzymatic buffer/kinase 5× (Cisbio, Catalog number 62EZBFDD) (main ingredient: 50 mM HEPES, pH 7.0), 5 mM MgCl2, 1 mM DTT; the human recombinant FGFR3 catalytic structural domain protein (amino acids 399-806) was commercially available from Sino Biological Inc., diluted with the reaction buffer to a 0.3 ng/μL kinase solution; the substrate reaction solution comprised a biotin labeled tyrosine kinase substrate diluted with the reaction buffer to 1000 nM (Cisbio, catalog number 62TK0PEC), and 90 μM ATP, and the assay solution comprised an Eu^3+ labeled cage-shaped antibody (Cisbio, Catalog number 61T66KLB) diluted with the assay buffer (Cisbio, Catalog number 62SDBRDF) to 0.125 ng/μL, and 62.5 nM streptavidin labeled XL665 (Cisbio, Catalog number 610SAXLB).
as §6
as §7, with “an FGFR3” for “an FGFR2”, “the FGFR3” for “the FGFR2”
as §3

A further test deals with Hep3B cells. The experiment in a line: Hep3B cell proliferation inhibition test (CellTiter-Glo). The test is classed as cell-based. Conditions: Homo sapiens, 72 h, CTG. On the procedure: Hep3B Cell Proliferation Inhibition Test
The influence of the compound according to the present invention on Hep3B cell proliferation was evaluated by a luminescence cell viability test.
as §1
A CellTilter-Glo (CTG) assay kit was used to detect an indicator ATP of active cellular metabolism by means of a unique stable luciferase, and the luminous signal produced in the test was in direct proportion to the count of active cells in the medium, thereby to detect the cell proliferation of Hep3B.
A CellTilter-Glo agent (Promega, G7572) was comprised of a CellTilter-Glo lyophilized powder and a CellTilter-Glo buffer, and the lyophilized powder was dissolved into the buffer in use.
Hep3B cells (ATCC, HB-8064) (cell source: Shanghai Academy of Life Sciences, Chinese Academy of Sciences) were cultured in a DMEM complete medium (Thermofisher, 11995073) containing a 10% FBS (GBICO, 10099-141) and 100 units/ml mycillin mixed solution (Thermofisher, 15140122). When the cells coverage reached 80-90% in the culture vessel, after the cells were digested and blown about with 0.25% pancreatin (containing EDTA) (Thermofisher, 25200056), they were planted in a white 384 well plate (Thermofisher, 164610), with 1000 cells in each well (27 μl of a DMEM complete medium), and then the 384 well plate was placed into an incubator at 37° C. and 5% CO2 and cultured overnight (18-20 h). The compound was dissolved and diluted in 100% DMSO to 100 μM, then 4-fold-series diluted with DMSO to a minimum concentration of 0.0061 μM, and each concentration point was 50-fold diluted with the FBS-free DMEM medium. If the IC50 value of the compound was very low, the initial concentration of the compound could be reduced. […] This 384 well plate was placed into an incubator at 37° C. and 5% CO2 for further culture, taken out after 72 h, and stood at room temperature for 30 min. The CTG agent was also taken out and balanced to room temperature. 15 μl of the CTG agent was added into each well, and placed onto a shaker to be gently shaken for 3 min to ensure sufficient cell lysis. After 10 min of standing to allow the luminescence signal to be stable, the luminescence signal was read with EnVision (Perkin Elmer).
The inhibition percentage of the compound against Hep3B cell proliferation could be calculated with the following formula: Inhibition percentage=100−100*(signalcompound−signalnegative control)/(signalpositive control−signalnegative control)
The IC50 value of the compound was calculated by the following formula, from 8 concentration points, with XLfit (ID Business Solutions Ltd., UK): Y=Bottom+(Top−Bottom)/(1+10^((Log IC50−X)*slope factor))
as §5
On the technique in general: Cellular ATP, detected with luciferase, serves as a proxy for viable cell number.

Sequence of human recombinant FGFR3 catalytic structural domain protein (P22607 399-806): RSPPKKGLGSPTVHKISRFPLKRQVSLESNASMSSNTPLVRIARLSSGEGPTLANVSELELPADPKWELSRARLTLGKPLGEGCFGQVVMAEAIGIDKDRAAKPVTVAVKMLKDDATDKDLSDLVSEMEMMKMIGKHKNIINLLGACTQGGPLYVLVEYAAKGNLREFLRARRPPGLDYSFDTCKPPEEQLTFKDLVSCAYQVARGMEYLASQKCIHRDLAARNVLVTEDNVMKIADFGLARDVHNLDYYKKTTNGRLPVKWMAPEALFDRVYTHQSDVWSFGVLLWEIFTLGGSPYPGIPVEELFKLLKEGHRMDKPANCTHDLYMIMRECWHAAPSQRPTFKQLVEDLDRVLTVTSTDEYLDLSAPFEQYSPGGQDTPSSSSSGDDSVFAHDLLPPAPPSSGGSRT
Sequence of human recombinant FGFR1 catalytic structural domain protein (P11362 other isoform, or with tags, fused parts or gaps): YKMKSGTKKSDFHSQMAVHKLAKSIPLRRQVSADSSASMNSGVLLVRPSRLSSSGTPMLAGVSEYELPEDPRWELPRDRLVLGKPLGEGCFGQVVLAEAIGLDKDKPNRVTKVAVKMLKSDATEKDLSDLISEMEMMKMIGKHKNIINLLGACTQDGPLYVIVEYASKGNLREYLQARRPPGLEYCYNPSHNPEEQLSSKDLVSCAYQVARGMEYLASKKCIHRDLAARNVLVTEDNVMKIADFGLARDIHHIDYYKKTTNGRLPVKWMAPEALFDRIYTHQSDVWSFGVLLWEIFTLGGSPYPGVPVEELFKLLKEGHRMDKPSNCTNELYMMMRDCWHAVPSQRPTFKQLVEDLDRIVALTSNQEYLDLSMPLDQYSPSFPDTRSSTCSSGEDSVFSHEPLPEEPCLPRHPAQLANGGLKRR
Sequence of human recombinant FGFR2 catalytic structural domain protein (P21802 400-821): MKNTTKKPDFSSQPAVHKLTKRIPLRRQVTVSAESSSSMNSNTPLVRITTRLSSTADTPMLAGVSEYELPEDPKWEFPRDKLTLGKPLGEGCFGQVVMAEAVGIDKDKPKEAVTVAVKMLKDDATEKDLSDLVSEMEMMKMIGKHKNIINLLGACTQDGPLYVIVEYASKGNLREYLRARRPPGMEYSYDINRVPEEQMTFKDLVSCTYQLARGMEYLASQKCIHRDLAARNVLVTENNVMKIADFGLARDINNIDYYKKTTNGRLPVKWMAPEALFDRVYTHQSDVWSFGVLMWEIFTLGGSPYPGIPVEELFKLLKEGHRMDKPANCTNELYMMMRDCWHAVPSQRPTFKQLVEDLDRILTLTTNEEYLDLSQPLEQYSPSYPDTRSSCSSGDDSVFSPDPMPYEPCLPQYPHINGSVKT
Sequence of human recombinant FGFR4 catalytic structural domain protein (P22455 460-802): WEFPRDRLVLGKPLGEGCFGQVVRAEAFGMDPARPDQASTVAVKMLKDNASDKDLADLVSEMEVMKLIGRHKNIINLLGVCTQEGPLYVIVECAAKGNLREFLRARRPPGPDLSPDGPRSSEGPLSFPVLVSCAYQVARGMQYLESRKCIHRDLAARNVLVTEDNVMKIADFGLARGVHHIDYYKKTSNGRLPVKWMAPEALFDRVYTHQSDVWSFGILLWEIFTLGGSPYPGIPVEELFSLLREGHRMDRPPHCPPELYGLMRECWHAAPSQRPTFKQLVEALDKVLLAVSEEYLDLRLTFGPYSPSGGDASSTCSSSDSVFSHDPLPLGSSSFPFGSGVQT

For `CC(C)Oc1cc(NC(=O)N(C)c2ccc(CN3CCOCC3=O)c(C=O)n2)ncc1C#N` [Compound 13], the IC50 was 10 to 100 nM in test [1], above 1000 nM in test [2], above 1000 nM in test [3] and above 1000 nM in test [4].
For the compound `C[C@H](CO)Oc1cc(NC(=O)N(C)c2ccc(CN3CCN(C)CC3=O)c(C=O)n2)ncc1C#N` [Compound 25, (R)-3-(5-cyano-4-((1-hydroxyprop-2-yl)oxy)pyrid-2-yl)-1-(6-formyl-5-((4-methyl-2-carbonylpiperazin-1-yl)methyl)pyrid-2-yl)-1-methylurea], the IC50 in test [1] is below 10 nM; in test [2] it was above 1000 nM; in test [3], above 1000 nM; in test [4], above 1000 nM.
Regarding `CN(C(=O)Nc1cc(Cl)c(C#N)cn1)c1ccc(CO)c(C=O)n1` [Compound 22, 3-(4-chloro-5-cyanopyrid-2-yl)-1-(6-formyl-5-(hydroxymethyl)pyrid-2-yl)-1-methylurea], the IC50 in test [1] was 100 to 1000 nM; in test [2], above 1000 nM; in test [3], above 1000 nM; in test [4], above 1000 nM.
Regarding `COCCOc1cc(NC(=O)N(C)c2ccc(CN3CCN(C)CC3=O)c(C=O)n2)ncc1C#N` [Compound 20, 3-(5-cyano-4-(2-methoxyethoxy)pyrid-2-yl)-1-(6-formyl-5-((4-methyl-2-carbonylpiperazin-1-yl)methyl)pyrid-2-yl)-1-methylurea], the IC50 in test [1] is below 10 nM; in test [2] it was above 1000 nM; in test [3] it was above 1000 nM; in test [4] it was above 1000 nM.
`COCCNc1cc(NC(=O)N(C)c2ccc(CO)c(C=O)n2)ncc1C#N` [Compound 21, 3-(5-cyano-4-((2-methoxyethyl)amino)pyrid-2-yl)-1-(6-formyl-5-(hydroxymethyl)pyrid-2-yl)-1-methylurea]: the 50% inhibitory concentration (IC50) in test [1] is 100 to 1000 nM; in test [2] it was above 1000 nM; in test [3] it was above 1000 nM; in test [4] it was above 1000 nM.
For the compound `COCCNc1cc(NC(=O)N(C)c2ccc(C3CCNCC3)c(C=O)n2)ncc1C#N` [Compound 23, 3-(5-cyano-4-((2-methoxyethyl)amino)pyrid-2-yl)-1-(6-formyl-5-(piperidin-4-yl)pyrid-2-yl)-1-methylurea], the IC50 was 10 to 100 nM in test [1], above 1000 nM in test [2], above 1000 nM in test [3] and 50 to 100 nM with Hep3B cells.
`CN(C(=O)Nc1cc(Cl)c(C#N)cn1)c1ccc(CN2CCOCC2=O)c(C=O)n1` [Compound 11]: the concentration for half-maximal inhibition (IC50) was 10 to 100 nM in test [1], above 1000 nM in test [2], above 1000 nM in test [3] and above 1000 nM in test [4].

The record behind these values is patent publication US10590109B2, “Heterocyclic compounds used as FGFR inhibitors” (Nanjing InnoCare Pharma Tech Co., Ltd., priority 2016, dated 2020).
